The record followed here is US9796704B2, “Substituted quinazolines as receptor-type kinase inhibitors” (Symphony Evolution, Inc., priority 2002, dated 2017).

Molecules are shown by their SMILES. A value given as a limit tells only on which side of the number the result lay.

The target of this experiment is EGFR (Homo sapiens (Human), UniProt P00533). In words: EGFR kinase inhibition, luciferase-coupled chemiluminescent assay (LCCA). As to conditions: read-out: EGFR IC50.
Sequence of EGFR (P00533 672-1210): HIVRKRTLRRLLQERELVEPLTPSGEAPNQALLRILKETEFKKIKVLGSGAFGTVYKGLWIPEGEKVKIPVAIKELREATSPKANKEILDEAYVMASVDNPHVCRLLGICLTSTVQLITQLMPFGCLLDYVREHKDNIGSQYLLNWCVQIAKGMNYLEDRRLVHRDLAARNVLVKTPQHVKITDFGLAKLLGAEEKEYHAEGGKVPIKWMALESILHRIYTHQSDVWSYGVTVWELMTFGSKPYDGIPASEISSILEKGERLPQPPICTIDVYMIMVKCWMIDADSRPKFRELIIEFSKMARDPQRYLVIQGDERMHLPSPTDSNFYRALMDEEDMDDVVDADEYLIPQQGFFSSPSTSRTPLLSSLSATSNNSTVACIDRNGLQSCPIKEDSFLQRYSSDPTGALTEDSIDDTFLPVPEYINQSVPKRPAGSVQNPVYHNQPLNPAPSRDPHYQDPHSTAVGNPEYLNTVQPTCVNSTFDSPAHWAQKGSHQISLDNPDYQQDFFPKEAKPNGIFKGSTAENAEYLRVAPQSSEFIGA
Procedure: Kinase activity and compound inhibition are investigated using one or more of the three assay formats described below. The ATP concentrations are selected near its Michaelis-Menten constant (KM) for each individual kinase. Dose-response experiments are performed at ten different inhibitor concentrations in a 384-well plate format. […] Typically H is close to unity.
In the LCCA assays, kinase activity is measured by the ATP consumption that is accurately measured by luciferase-coupled chemiluminescence. Greiner 384-well white clear bottom medium binding plates are used for LCCA. Briefly the kinase reaction is initiated by mixing compounds, ATP and kinases in a 20 μL volume. At the end of the kinase reaction, a 20 μL luciferase-luciferin mix is added and the chemiluminescent signal is read on a Wallac Victor^2 reader.
With `COc1cc2c(Nc3ccc(Cl)c(Cl)c3F)ncnc2cc1OC[C@@H]1CN2CCCC[C@@H]2C(=O)N1` [Example 50, (3S,9aR)-3-({[4-[(3,4-dichloro-2-fluorophenyl)amino]-6-(methyloxy)quinazolin-7-yl]oxy}methyl)hexahydro-2H-pyrido[1,2-a]pyrazin-1(6H)-one], the IC50 is 50 to 1000 nM. As to `C=C1CO[C@@H]2[C@@H](Oc3cc4ncnc(Nc5ccc(Br)c(Cl)c5)c4cc3OC)CO[C@H]12` [Example 81, 1,4:3,6-dianhydro-2-O-[4-[(4-bromo-3-chlorophenyl)amino]-6-(methyloxy)quinazolin-7-yl]-5-deoxy-5-methylidene-D-xylo-hexitol], the half-maximal inhibitory concentration (IC50) was less than 50 nM. The value for `COc1cc2c(Nc3ccc(Br)c(Cl)c3)ncnc2cc1O[C@H]1CO[C@@H]2[C@@H](OC)[C@@H](OC)O[C@@H]21` [Example 82, methyl 3,6-anhydro-5-O-[4-[(4-bromo-3-chlorophenyl)amino]-6-(methyloxy)quinazolin-7-yl]-2-O-methyl-beta-L-idofuranoside] was less than 50 nM; that for `COc1cc2c(Nc3ccc(Cl)c(Cl)c3F)ncnc2cc1OCC1CCC2CCCCN2C1` (stereo not drawn) [Example 83, N-(3,4-dichloro-2-fluorophenyl)-6-(methyloxy)-7-[(octahydro-2H-quinolizin-3-ylmethyl)oxy]quinazolin-4-amine] was less than 50 nM. The value for `COc1cc2c(Nc3ccc(F)cc3Cl)ncnc2cc1O[C@@H]1CO[C@@H]2[C@H]1OC[C@H]2F` [Example 85, 1,4:3,6-dianhydro-5-O-[4-[(2-chloro4-fluorophenyl)amino]-6-(methyloxy)quinazolin-7-yl]-2-deoxy-2-fluoro-D-iditol] was less than 50 nM; that for `COc1cc2c(Nc3ccc(F)cc3Br)ncnc2cc1O[C@@H]1CO[C@@H]2[C@H]1OC[C@H]2F` [Example 86, 1,4:3,6-dianhydro-5-O-[4-[(2-bromo-4-fluorophenyl)amino]-6-(methyloxy)quinazolin-7-yl]-2-deoxy-2-fluoro-D-iditol] was less than 50 nM. The same measure for `COc1cc2c(Nc3cccc(Cl)c3F)ncnc2cc1O[C@@H]1CO[C@@H]2[C@H]1OC[C@H]2F` [Example 88, 1,4:3,6-dianhydro-5-O-[4-[(3-chloro-2-fluorophenyl)amino]-6-(methyloxy)quinazolin-7-yl]-2-deoxy-2-fluoro-D-iditol]: less than 50 nM; for `COc1cc2c(Nc3cc(F)ccc3F)ncnc2cc1O[C@@H]1CO[C@@H]2[C@H]1OC[C@H]2F` [Example 91, 1,4:3,6-dianhydro-2-deoxy-5-O-[4-[(2,5-difluorophenyl)amino]-6-(methyloxy)quinazolin-7-yl]-2-fluoro-D-iditol]: less than 50 nM; for `COc1cc2c(Nc3cc(Cl)ccc3F)ncnc2cc1O[C@@H]1CO[C@@H]2[C@H]1OC[C@H]2F` [Example 93, 1,4:3,6-dianhydro-5-O-[4-[(5-chloro-2-fluorophenyl)amino]-6-(methyloxy)quinazolin-7-yl]-2-deoxy-2-fluoro-D-iditol]: less than 50 nM.

On to `COc1cc2c(Nc3ccc(F)c(Cl)c3)ncnc2cc1O[C@@H]1CO[C@@H]2[C@H]1OC[C@H]2F` [Example 95, 1,4:3,6-dianhydro-5-O-[4-[(3-chloro-4-fluorophenyl)amino]-6-(methyloxy)quinazolin-7-yl]-2-deoxy-2-fluoro-D-iditol], for which the 50% inhibitory concentration (IC50) was less than 50 nM. For `COc1cc2c(Nc3c(F)cc(F)cc3F)ncnc2cc1O[C@@H]1CO[C@@H]2[C@H]1OC[C@H]2F` [Example 100, 1,4:3,6-dianhydro-2-deoxy-2-fluoro-5-O-{6-(methyloxy)-4-[(2,4,6-trifluorophenyl)amino]quinazolin-7-yl}-D-iditol], the IC50 was less than 50 nM. For `COc1cc2c(Nc3cc(F)c(Oc4ccc(Cl)cc4)c(F)c3)ncnc2cc1O[C@@H]1CO[C@@H]2[C@H]1OC[C@H]2F` [Example 101, 1,4:3,6-dianhydro-5-O-[4-({4-[(4-chlorophenyl)oxy]-3,5-difluorophenyl}amino)-6-(methyloxy)quinazolin-7-yl]-2-deoxy-2-fluoro-D-iditol], the IC50 is less than 50 nM. The same measure for `COc1cc2c(Nc3ccc(Br)c(Cl)c3F)ncnc2cc1O[C@@H]1CO[C@@H]2[C@H]1OC[C@H]2F` [Example 102, 1,4:3,6-dianhydro-5-O-[4-[(4-bromo-3-chloro-2-fluorophenyl)amino]-6-(methyloxy)quinazolin-7-yl]-2-deoxy-2-fluoro-D-iditol]: less than 50 nM; for `COc1cc2c(Nc3cccc(Cl)c3C)ncnc2cc1O[C@@H]1CO[C@@H]2[C@H]1OC[C@H]2F` [Example 110, 1,4:3,6-dianhydro-5-O-[4-[(3-chloro-2-methylphenyl)amino]-6-(methyloxy)quinazolin-7-yl]-2-deoxy-2-fluoro-D-iditol]: less than 50 nM; for `COc1cc2c(Nc3ccc(F)c(F)c3)ncnc2cc1O[C@@H]1CO[C@@H]2[C@H]1OC[C@H]2F` [Example 111, 1,4:3,6-dianhydro-2-deoxy-5-O-[4-[(3,4-difluorophenyl)amino]-6-(methyloxy)quinazolin-7-yl]-2-fluoro-D-iditol]: less than 50 nM. As to `COc1cc2c(Nc3ccccc3Cl)ncnc2cc1O[C@@H]1CO[C@@H]2[C@H]1OC[C@H]2F` [Example 112, 1,4:3,6-dianhydro-5-O-[4-[(2-chlorophenyl)amino]-6-(methyloxy)quinazolin-7-yl]-2-deoxy-2-fluoro-D-iditol], the IC50 was less than 50 nM.

Regarding `COc1cc2c(Nc3ccccc3F)ncnc2cc1O[C@@H]1CO[C@@H]2[C@H]1OC[C@H]2F` [Example 113, 1,4:3,6-dianhydro-2-deoxy-2-fluoro-5-O-[4-[(2-fluorophenyl)amino]-6-(methyloxy)quinazolin-7-yl]-D-iditol], the IC50 was less than 50 nM. Consider `COc1cc2c(Nc3ccc(Cl)cc3)ncnc2cc1O[C@@H]1CO[C@@H]2[C@H]1OC[C@H]2F` [Example 116, 1,4:3,6-dianhydro-5-O-[4-[(4-chlorophenyl)amino]-6-(methyloxy)quinazolin-7-yl]-2-deoxy-2-fluoro-D-iditol], for which the half-inhibitory concentration (IC50) was less than 50 nM. For the compound `COc1cc2c(Nc3ccc(Cl)c(C(F)(F)F)c3)ncnc2cc1O[C@@H]1CO[C@@H]2[C@H]1OC[C@H]2F` [Example 121, 1,4:3,6-dianhydro-5-O-[4-{[4-chloro-3-(trifluoromethyl)phenyl]amino}-6-(methyloxy)quinazolin-7-yl]-2-deoxy-2-fluoro-D-iditol], the 50% inhibitory concentration (IC50) was less than 50 nM. The same measure for `COc1cc2c(Nc3cccc(C(F)(F)F)c3F)ncnc2cc1O[C@@H]1CO[C@@H]2[C@H]1OC[C@H]2F` [Example 123, 1,4:3,6-dianhydro-2-deoxy-2-fluoro-5-O-[4-{[2-fluoro-3-(trifluoromethyl)phenyl]amino}-6-(methyloxy)quinazolin-7-yl]-D-iditol]: less than 50 nM; for `COc1cc2c(Nc3cc(C(F)(F)F)ccc3Br)ncnc2cc1O[C@@H]1CO[C@@H]2[C@H]1OC[C@H]2F` [Example 124, 1,4:3,6-dianhydro-5-O-[4-{[2-bromo-5-(trifluoromethyl)phenyl]amino}-6-(methyloxy)quinazolin-7-yl]-2-deoxy-2-fluoro-D-iditol]: less than 50 nM; for `COc1cc2c(Nc3ccc(F)cc3C(F)(F)F)ncnc2cc1O[C@@H]1CO[C@@H]2[C@H]1OC[C@H]2F` [Example 126, 1,4:3,6-dianhydro-2-deoxy-2-fluoro-5-O-[4-{[4-fluoro-2-(trifluoromethyl)phenyl]amino}-6-(methyloxy)quinazolin-7-yl]-D-iditol]: less than 50 nM. The same measure for `COc1cc2c(Nc3ccccc3Br)ncnc2cc1O[C@@H]1CO[C@@H]2[C@H]1OC[C@H]2F` [Example 128, 1,4:3,6-dianhydro-5-O-[4-[(2-bromophenyl)amino]-6-(methyloxy)quinazolin-7-yl]-2-deoxy-2-fluoro-D-iditol]: less than 50 nM; for `COc1cc2c(Nc3ccc(Br)cc3)ncnc2cc1O[C@@H]1CO[C@@H]2[C@H]1OC[C@H]2F` [Example 130, 1,4:3,6-dianhydro-5-O-[4-[(4-bromophenyl)amino]-6-(methyloxy)quinazolin-7-yl]-2-deoxy-2-fluoro-D-iditol]: less than 50 nM; for `COc1cc2c(Nc3ccc(C)c(Br)c3)ncnc2cc1O[C@@H]1CO[C@@H]2[C@H]1OC[C@H]2F` [Example 131, 1,4:3,6-dianhydro-5-O-[4-[(3-bromo-4-methylphenyl)amino]-6-(methyloxy)quinazolin-7-yl]-2-deoxy-2-fluoro-D-iditol]: less than 50 nM. The value for `COc1cc2c(Nc3cc(C)cc(C)c3)ncnc2cc1O[C@@H]1CO[C@@H]2[C@H]1OC[C@H]2F` [Example 133, 1,4:3,6-dianhydro-2-deoxy-5-O-[4-[(3,5-dimethylphenyl)amino]-6-(methyloxy)quinazolin-7-yl]-2-fluoro-D-iditol] was less than 50 nM; that for `COc1cc(Nc2ncnc3cc(O[C@@H]4CO[C@@H]5[C@H]4OC[C@H]5F)c(OC)cc23)c(OC)cc1Cl` [Example 136, 1,4:3,6-dianhydro-5-O-[4-{[4-chloro-2,5-bis(methyloxy)phenyl]amino}-6-(methyloxy)quinazolin-7-yl]-2-deoxy-2-fluoro-D-iditol] was less than 50 nM; that for `COc1cc2c(Nc3ccc(Cl)c(Cl)c3)ncnc2cc1OCC1CNCCO1` (stereo not drawn) [Example 144, N-(3,4-dichlorophenyl)-6-(methyloxy)-7-[(morpholin-2-ylmethyl)oxy]quinazolin-4-amine] was less than 50 nM.

In the case of `COc1cc2c(Nc3ccc(Cl)c(Cl)c3)ncnc2cc1OCC1CNCCCO1` (stereo not drawn) [Example 152, N-(3,4-dichlorophenyl)-6-(methyloxy)-7-[(1,4-oxazepan-2-ylmethyl)oxy]quinazolin-4-amine], the half-inhibitory concentration (IC50) is less than 50 nM. The same measure for `COc1cc2c(Nc3ccc(Cl)c(Cl)c3)ncnc2cc1OCc1cccc2nsnc12` [Example 159, 7-[(2,1,3-benzothiadiazol-4-ylmethyl)oxy]-N-(3,4-dichlorophenyl)-6-(methyloxy)quinazolin-4-amine]: less than 50 nM.
